# Values joined by “and” are separate entries in the source; they are usually repeats but may differ in a detail not shown here. Equal values may be shown once. Where a name gives a salt, the structure may show the parent alone.
# How the values were obtained:
# [1] = Solubility of the active compound in ethanol/propellant mixture; type: physicochemical
# Description: Other aspects of the present invention include solubility of the active compound in the pharmaceutically acceptable solvent, ethyl alcohol, the maintainance in solution of the active compound upon the addition of the propellant(s) and the particle size distribution of the aerosol preparation. The compounds of the present invention are soluble in ethyl alcohol.
# Male Hartley guinea pigs = assay: Antigen-induced bronchoconstriction in ovalbumin-immunized anesthetized guinea pigs, aerosol administration; type: in vivo; conditions: 1% aerosol formulation, 25 actuations, approximately 5 mg (or 15 mg/kg), 15 minutes before ovalbumin 0.3 mg/kg i.v. challenge, n=7
# Procedure: Male Hartley guinea pigs (200-250 g) were immunized with ovalbumin, 2.7 mg/kg i.p., followed in 30 minutes by Salmonella typhosa lipopolysaccharide, 20 ug i.p. Thirteen to fifteen days after immunization, each guinea pig was anesthetized with sodium pentobarbital, 50 mg/kg i.p., and a jugular vein and the trachea were cannulated. The animal was mechanically ventilated (80 breaths/min. 2ml/breath). Needle electrodes were attached to the limbs for monitoring ECG and heart rate. Airway pressure was measured with a Validyne pressure transducer (+ 20 cm H20 range) connected to the tracheal cannula. Airway pressure for each breath was recorded on a polygraph, while mean values over 6-second periods were printed on a digital terminal. […] All bronchoconstrictor responses to the second dose of LTD4 and to antigen were quantified as the percent increase in airway pressure over the baseline value. The normalized response of each animal is expressed as the ratio of antigen-induced to LTD4-induced bronchoconstriction. Mean values and standard errors of these ratios in control and drug-treated groups were calculated and compared statistically by Student's t-test. The activity of each drug is expressed as the percent inhibition of the mean control response.
# [2] = Particle size distribution and MMAD of aerosol formulations; type: physicochemical; parameters: MMAD**: unit: micrometers (µm); conditions: for MMAD**: Mass Median Aerodynamic Diameter; for Part. Size (mg collected) per 20 actuations 4 µ*: Particle Size Limit = 4 µ to 8 µ; for mg at 1-8 µ: per 20 actuations
# Description: Other essential properties of aerosol formulations are the particle size distribution and the related mass median aerodynamic diameter of the particles. It is generally required that the effective range for inahalation products be approximately in the range of 1 to 8 micrometers (um). The particle size distribution helps, inter alia, to reduce loss on impaction on the tongue and oropharynx of the particles expelled from the pressurized container.
# [3] = Compound of Example 1 1.0, ETOH 5.0, P 114 47, P 12 47, hydrochloride
# [4] = Compound of Example 1 1.0, ETOH 10.0, P 114 25.0, P 12 75.0
# [5] = Compound of Example 1 1.0, ETOH 10.0, P 114 35, P 12 53
# [6] = Compound of Example 1 1.0, ETOH 10.0, P 114 44.5, P 12 44.5
# [7] = Compound of Example 1 1.0, ETOH 10.0, P 114 44.5, P 12 44.5, hydrochloride
# [8] = Compound of Example 1 2.0, ETOH 10.0, P 114 44.00, P 12 44.00
# [9] = Compound of Example 1 2.5, ETOH 10.0, P 114 43.75, P 12 43.75, hydrochloride
# [10] = Compound of Example 1 3.0, ETOH 10.0, P 114 43.5, P 12 43.5
# [11] = Compound of Example 1 3.5, ETOH 10.0, P 114 43.25, P 12 43.25
# [12] = Compound of Example 1 5.0, ETOH 30.0, P 114 32.5, P 12 32.5
# [13] = Compound of Example 1 6.0, ETOH 20.0, P 114 29.6, P 12 44.4
# [14] = Compound of Example 1 9.0, ETOH 30.0, P 114 17, P 12 44
smiles,measurement,setting,value
"CCCCCC(O)c1cccc(OCc2ccc3ccccc3n2)c1 (stereo not drawn) [Compound of Example 1, 2-(3-(l-Hydroxyhexyl)phenoxymethyl)quinoline hydrochloride]",Solubility at 24°C,"[1]; Ethanol (W/W) 5%, Propellants 114/12 (50/50 Mixture) 93.2%",1.8%
same,Solubility at 24°C,"[1]; Ethanol (W/W) 10%, Propellants 114/12 (50/50 Mixture) 86.0%",4.0%
same,Solubility at 24°C,"[1]; Ethanol (W/W) 20%, Propellants 114/12 (50/50 Mixture) 74.0%",6.0%
same,Solubility at 24°C,"[1]; Ethanol (W/W) 30%, Propellants 114/12 (50/50 Mixture) 61.0%",9.0%
same,percent inhibition of the mean control response,Male Hartley guinea pigs,53%
same,"normalized postchallenge increase in PAW (ratio of antigen-induced to LTD4-induced bronchoconstriction), mean response",Male Hartley guinea pigs; mean and standard error,0.60 ± 0.16
same,Part. Size (mg collected) per 20 actuations 1 µ,[2]; [3],0.448 mg and 0.607 mg and 0.667 mg
same,Part. Size (mg collected) per 20 actuations 2 µ,[2]; [3],0.973 mg and 1.529 mg and 1.532 mg
same,Pressure PSI,[2]; [3],58.7 PSI and 60.2 PSI
same,cum % 1-8 µ,[2]; [3],57.74% and 60.73% and 66.20%
same,Part. Size (mg collected) per 20 actuations 1 µ,[2]; [4],0.499 mg
same,Part. Size (mg collected) per 20 actuations 2 µ,[2]; [4],1.167 mg
same,cum % 1-8 µ,[2]; [4],45.36%
same,Part. Size (mg collected) per 20 actuations 1 µ,[2]; [5],0.503 mg
same,Part. Size (mg collected) per 20 actuations 2 µ,[2]; [5],1.201 mg
same,Pressure PSI,[2]; [5],56 PSI
same,cum % 1-8 µ,[2]; [5],55.41%
same,Pressure PSI,[2]; [6],49.3 PSI
same,Part. Size (mg collected) per 20 actuations 1 µ,[2]; [7],0.498 mg and 0.479 mg
same,Part. Size (mg collected) per 20 actuations 2 µ,[2]; [7],1.243 mg and 0.868 mg
same,cum % 1-8 µ,[2]; [7],53.70% and 57.26%
same,Part. Size (mg collected) per 20 actuations 1 µ,[2]; [8],0.661 mg
same,Part. Size (mg collected) per 20 actuations 2 µ,[2]; [8],1.373 mg
same,cum % 1-8 µ,[2]; [8],46.71%
same,Part. Size (mg collected) per 20 actuations 1 µ,[2]; [9],0.514 mg and 0.528 mg and 0.638 mg
same,Part. Size (mg collected) per 20 actuations 2 µ,[2]; [9],1.380 mg and 1.435 mg and 1.106 mg
same,cum % 1-8 µ,[2]; [9],44.86% and 44.36% and 42.87%
same,Part. Size (mg collected) per 20 actuations 1 µ,[2]; [10],0.538 mg
same,Part. Size (mg collected) per 20 actuations 2 µ,[2]; [10],1.478 mg
same,cum % 1-8 µ,[2]; [10],40.15%
same,Part. Size (mg collected) per 20 actuations 1 µ,[2]; [11],0.583 mg
same,Part. Size (mg collected) per 20 actuations 2 µ,[2]; [11],1.236 mg
same,cum % 1-8 µ,[2]; [11],35.00%
same,Part. Size (mg collected) per 20 actuations 1 µ,[2]; [12],0.336 mg
same,Part. Size (mg collected) per 20 actuations 2 µ,[2]; [12],0.852 mg
same,Pressure PSI,[2]; [12],52 PSI
same,cum % 1-8 µ,[2]; [12],32.09%
same,Part. Size (mg collected) per 20 actuations 1 µ,[2]; [13],0.447 mg
same,Part. Size (mg collected) per 20 actuations 2 µ,[2]; [13],0.901 mg
same,Pressure PSI,[2]; [13],52.0 PSI
same,cum % 1-8 µ,[2]; [13],28.77%
same,Part. Size (mg collected) per 20 actuations 1 µ,[2]; [14],0.394 mg
same,Part. Size (mg collected) per 20 actuations 2 µ,[2]; [14],0.818 mg
same,Pressure PSI,[2]; [14],53.7 PSI
same,cum % 1-8 µ,[2]; [14],28.79%
same,MMAD**,[2]; [3],3.0 and 2.8
same,MMAD**,[2]; [4],4.0
same,MMAD**,[2]; [5],3.5
same,MMAD**,[2]; [6],3.0
same,MMAD**,[2]; [8],3.8
same,MMAD**,[2]; [9],3.8 and 4.0
same,MMAD**,[2]; [10],4.0
same,MMAD**,[2]; [11],4.5
same,MMAD**,[2]; [12],6.0
same,MMAD**,[2]; [13],5.75
same,MMAD**,[2]; [14],6.0
same,Part. Size (mg collected) per 20 actuations 4 µ*,[2]; [3],2.091 mg and 2.522 mg and 2.481 mg
same,Part. Size (mg collected) per 20 actuations 4 µ*,[2]; [4],1.611 mg
same,Part. Size (mg collected) per 20 actuations 4 µ*,[2]; [5],2.283 mg
same,Part. Size (mg collected) per 20 actuations 4 µ*,[2]; [7],1.871 mg and 1.715 mg
same,Part. Size (mg collected) per 20 actuations 4 µ*,[2]; [8],2.772 mg
same,Part. Size (mg collected) per 20 actuations 4 µ*,[2]; [9],3.121 mg and 3.103 mg and 2.744 mg
same,Part. Size (mg collected) per 20 actuations 4 µ*,[2]; [10],2.657 mg
same,Part. Size (mg collected) per 20 actuations 4 µ*,[2]; [11],3.546 mg
same,Part. Size (mg collected) per 20 actuations 4 µ*,[2]; [12],2.084 mg
same,Part. Size (mg collected) per 20 actuations 4 µ*,[2]; [13],2.879 mg
same,Part. Size (mg collected) per 20 actuations 4 µ*,[2]; [14],2.381 mg
same,mg at 1-8 µ,[2]; [3],3.512 mg and 4.658 mg and 4.680 mg
same,mg at 1-8 µ,[2]; [4],3.277 mg
same,mg at 1-8 µ,[2]; [5],3.987 mg
same,mg at 1-8 µ,[2]; [7],3.612 mg and 3.062 mg
same,mg at 1-8 µ,[2]; [8],4.806 mg
same,mg at 1-8 µ,[2]; [9],5.015 mg and 5.066 mg and 4.488 mg
same,mg at 1-8 µ,[2]; [10],4.673 mg
same,mg at 1-8 µ,[2]; [11],5.365 mg
same,mg at 1-8 µ,[2]; [12],3.272 mg
same,mg at 1-8 µ,[2]; [13],4.227 mg
same,mg at 1-8 µ,[2]; [14],3.593 mg

# — patent publication EP0234500A1, “Antiasthma inhalation compositions” (RORER PHARMACEUTICAL CORPORATION, priority 1986, dated 1987)
